# Results taken from patent US7846963B2, “2-oxo-heterocyclic compounds and the pharmaceutical compositions comprising the same” (Korea Research Institute of Bioscience and Biotechnology, priority 2003, dated 2010).
# System: production of TNF-alpha in RAW 264.7 cells
# Assay: Inhibition of TNF-alpha production in LPS-treated RAW 264.7 cells, ELISA of culture supernatant
# Format: cell-based, mouse
# Conditions: Mus musculus, RAW264.7, Table 23, LPS 0.3 μg/ml, 24 hours, compounds up to 10 μM, IC50 unit inferred
# Experimental: To test the inhibiting activity of the compounds prepared from above Examples on the production of TNF-alpha, the concentration of TNF-alpha in the cell supernatant was measured.
# Each 200 μl of RAW 264.7 cells (ATCC, USA), a mouse macrophage cell line was seeded onto each well of 96-well microtiter plate (Nunc, Sweden) to the concentration ranging from 1×10^6 cells/ml to 5×10^6 cells/ml, and incubated in DMEM (Dulbeco's modified eagles medium) media containing 5% FBS (fetal bovine serum) at 37° C. in 5% CO2 incubator.
# Various concentrations of the compounds of the present invention ranging from […] to 10 μM and LPS (Sigma, USA) in the final concentration of 0.3 μg/ml were treated to activated cell simultaneously. The treated cells were cultured at 37° C. for 24 hours in 5% CO2 incubator and the cultured cells were collected after the cultivation
# And then the concentration of TNF-alpha secreted from the culture supernatant of RAW 264.7 cells was determined by ELISA according to the manufacture's instruction (R&D Systems, Minneapolis, Minn.).
# The result was shown in Table 23 (AA: IC50's<1, A: IC50's<5, B: IC50's<10, C: IC50's>10).
row,IC50 [µM],Compound
1,< 5,"O=C(CCC1=CCCN(Cc2ccc([N+](=O)[O-])cc2)C1=O)NO [Example 59, N-hydroxy-3-[1-(4-nitro-benzyl)-2-oxo-1,2,5,6-tetrahydro-pyridin-3-yl)-propionamide]"
2,< 1,"Cc1ccc(CCCN2CC=C(CCC(=O)NO)C2=O)cc1 [Example 40, N-hydroxy-3-[2-oxo-1-(3-p-tolyl-propyl)-2,5-dihydro-1H-pyrrol-3-yl]-propionamide]"
3,< 1,"O=C(CCC1=CCN(Cc2ccc(Br)cc2)C1=O)NO [Example 12, 3-[1-(4-bromo-benzyl)-2-oxo-2,5-dihydro-1H-pyrrol-3-yl]-N-hydroxy-propionamide]"
4,> 10,"COc1ccc(CN2CCC(CC(=O)NO)C2=O)c(OC)c1 (centres unmarked) [Example 26, 2-[1-(2,4-dimethoxy-benzyl)-2-oxo-pyrrolidin-3-yl]-N-hydroxy-acetamide]"
5,< 1,Cc1ccc(S(=O)(=O)Nc2ccc(CN3CCC=C(CCC(=O)O)C3=O)cc2)cc1 [Example 80]
6,> 10,"O=C(O)CCC1=CCCN(Cc2ccccc2)C1=O [Example 64, 3-(1-benzyl-2-oxo-1,2,5,6-tetrahydro-pyridin-3-yl)-propionic acid]"
7,< 10,"O=C(CC1=CCCN(CCCc2ccccc2)C1=O)NO [Example 85, N-hydroxy-2-[2-oxo-1-(3-phenyl-propyl)-1,2,5,6-tetrahydro-pyridin-3-yl]-N-hydroxy-acetamide]"
8,< 5,"O=C(CC1=CCCN(CCCCc2ccccc2)C1=O)NO [Example 86, N-hydroxy-2-[2-oxo-1-(4-phenyl-butyl)-1,2,5,6-tetrahydro-pyridin-3-yl]-N-hydroxy-acetamide]"
9,> 10,"O=C(CC1=CCN(Cc2ccccc2)C1=O)NO [Example 20, 2-(1-benzyl-2-oxo-2,5-dihydro-1H-pyrrol-3-yl)-N-hydroxy-acetamide]"
10,< 10,"COc1ccc(CN2CC=C(CCC(=O)NO)C2=O)c(OC)c1 [Example 1, 3-[1-(2,4-Dimethoxybenzyl)-2-oxo-2,5-dihydro-1H-pyrrol-3-yl]-N-hydroxypropionamide]"
11,< 10,"COc1ccc(CCCN2CC=C(CCC(=O)NO)C2=O)cc1 [Example 46, N-hydroxy-3-{1-[3-(4-methoxy-phenyl)-propyl]-2-oxo-2,5-dihydro-1H-pyrrol-3-yl]-propionamide]"
12,< 5,"O=C(CCC1=CCN(CCCc2ccc(-c3ccccc3)cc2)C1=O)NO [Example 55, 3-[1-(3-biphenyl-4-yl-propyl)-2-oxo-2,5-dihydro-1H-pyrrol-3-yl]-N-hydroxy-propionamide]"
13,> 10,"CN1CC=C(CCC(=O)NO)C1=O [Example 50, N-hydroxy-3-(1-methyl-2-oxo-2,5-dihydro-1H-pyrrol-3-yl)-propionamide]"
14,> 10,"O=C(CC1CCN(CCc2ccccc2)C1=O)NO (centres unmarked) [Example 27, N-hydroxy-2-(2-oxo-1-phenethyl-pyrrolidin-3-yl)-acetamide]"
15,< 5,"O=C(CCCC1=CCCN(CCc2ccccc2)C1=O)NO [Example 96, 4-(1-phenethyl-2-oxo-1,2,5,6-tetrahydro-pyridin-3-yl)-N-hydroxy-butylamide]"
16,< 5,"O=C(CCC1CCCN(CCc2ccccc2)C1=O)NO (centres unmarked) [Example 81, N-hydroxy-3-(2-oxo-1-phenethyl-piperidine-3-yl)-propionamide]"
17,< 10,"O=C(CCC1=CCN(Cc2ccc([N+](=O)[O-])cc2)C1=O)NO [Example 15, N-hydroxy-3-[1-(4-nitro-benzyl)-2-oxo-2,5-dihydro-1H-pyrrol-3-yl]-propionamide]"
18,< 5,"O=C(CCC1=CCCN(Cc2ccc3ccccc3c2)C1=O)NO [Example 103, N-hydroxy-3-(1-(naphthalene-2-yl-methyl)-2-oxo-1,2,5,6-tetrahydro-pyridin-3-yl)-propionamide]"
19,< 10,"O=C(CCC1=CCN(CCc2ccc([N+](=O)[O-])cc2)C1=O)NO [Example 33, N-hydroxy-3-{1-[2-(4-nitro-phenyl)-ethyl]-2-oxo-2,5-dihydro-1H-pyrrol-3-yl}-propionamide]"

row,IC50 [µM],Compound
1,< 5,"O=C(CCC1=CCN(Cc2ccc(Cl)cc2)C1=O)NO [Example 13, 3-[1-(4-chloro-benzyl)-2-oxo-2,5-dihydro-1H-pyrrol-3-yl]-N-hydroxy-propionamide]"
2,> 10,"CS(=O)(=O)N(c1ccc(CN2CCC=C(CCC(=O)NO)C2=O)cc1)S(C)(=O)=O [Example 76, N-hydroxy-3-[1-(4-dimethylsulfonylamino-benzyl)-2-oxo-1,2,5,6-tetrahydro-pyridin-3-yl]-propionamide]"
3,< 5,"O=C(CCCC1=CCCN(CCCc2ccccc2)C1=O)NO [Example 97, N-hydroxy-4-[2-oxo-1-(3-phenyl-propyl)-1,2,5,6-tetrahydro-pyridin-3-yl]-butylamide]"
4,< 1,"O=C(CCC1=CCN(CCCc2ccccc2)C1=O)NO [Example 4, N-hydroxy-3-[2-oxo-1-(3-phenyl-propyl)-2,5-dihydro-1H-pyrrol-3-yl]-propionamide]"
5,< 10,"O=C(O)CC1=CCCN(CCCCc2ccccc2)C1=O [Example 91, [2-oxo-1-(4-phenyl-butyl)-1,2,5,6-tetrahydro-pyridin-3-yl)-acetic acid]"
6,< 5,"O=C(CCC1=CCN(CCc2cccc(F)c2)C1=O)NO [Example 29, 3-{1-[2-(3-fluoro-phenyl)-ethyl]-2-oxo-2,5-dihydro-1H-pyrrol-3-yl}-N-hydroxy-propionamide]"
7,< 5,"COc1ccc(CN2CCCC(CC(=O)NO)C2=O)c(OC)c1 (centres unmarked) [Example 92, 2-[1-(2,4-dimethoxy-benzyl)-2-oxopiperidine-3-yl]-N-hydroxy-acetamide]"
8,< 5,"O=C(CCC1=CCCN(Cc2ccccc2)C1=O)NO [Example 58, N-hydroxy-3-(1-benzyl-2-oxo-1,2,5,6-tetrahydro-pyridin-3-yl)-propionic acid]"
9,> 10,"O=C(CCC1=CCN(Cc2ccc(OCc3ccccc3)cc2)C1=O)NO [Example 14, 3-[1-(4-benzyloxy-benzyl)-2-oxo-2,5-dihydro-1H-pyrrol-3-yl]-N-hydroxy-propionamide]"
10,> 10,"O=C(CC1=CCN(CCCCc2ccccc2)C1=O)NO [Example 23, N-hydroxy-2-[2-oxo-1-(4-phenyl-butyl)-2,5-dihydro-1H-pyrrol-3-yl]-acetamide]"
11,> 10,"O=C(CC1CCN(Cc2ccccc2)C1=O)NO (centres unmarked) [Example 25, 2-(1-benzyl-2-oxo-pyrrolidin-3-yl)-N-hydroxy-acetamide]"
12,< 5,"Cc1ccccc1CN1CC=C(CCC(=O)NO)C1=O [Example 6, N-hydroxy-3-[1-(2-methyl-benzyl)-2-oxo-2,5-dihydro-1H-pyrrol-3-yl]-propionamide]"
13,< 5,"O=C(CC1=CCCN(Cc2ccccc2)C1=O)NO [Example 83, 2-(1-benzyl-2-oxo-1,2,5,6-tetrahydro-pyridin-3-yl)-N-hydroxy-acetamide]"
14,< 1,"O=C(CCC1=CCN(Cc2ccc3ccccc3c2)C1=O)NO [Example 49, N-hydroxy-3-(1-naphthalene-2-ylmethyl-2-oxo-2,5-dihydro-1H-pyrrol-3-yl)-propionamide]"
15,> 10,"COc1ccc(CN2CCC=C(CCC(=O)O)C2=O)c(OC)c1 [Example 63, 3-[1-(2,4-dimethoxybenzyl)-2-oxo-1,2,5,6-tetrahydro-pyridin-3-yl]-propionic acid]"
16,< 1,"COc1ccc(CN2CC=C(CCC(=O)NO)C2=O)cc1 [Example 11, N-hydroxy-3-[1-(4-methoxy-benzyl)-2-oxo-2,5-dihydro-1H-pyrrol-3-yl]-propionamide]"
17,< 5,"Cc1cccc(CN2CC=C(CCC(=O)NO)C2=O)c1 [Example 7, N-hydroxy-3-[1-(3-methyl-benzyl)-2-oxo-2,5-dihydro-1H-pyrrol-3-yl]-propionamide]"
18,< 5,"O=C(CC1=CCCN(Cc2ccc([N+](=O)[O-])cc2)C1=O)NO [Example 84, N-hydroxy-2-[1-(4-nitro-benzyl)-2-oxo-1,2,5,6-tetrahydro-pyridin-3-yl)-N-hydroxy-acetamide]"
19,< 5,"Cc1ccc(CN2CC=C(CCC(=O)NO)C2=O)cc1 [Example 8, N-hydroxy-3-[1-(4-methyl-benzyl)-2-oxo-2,5-dihydro-1H-pyrrol-3-yl]-propionamide]"
